From patent US10689354B2, “Aminoazole derivative” (Teijin Pharma Limited, priority 2015, dated 2020)

Experiments:
human androgen receptor = target: T1, human androgen receptor (Homo sapiens, UniProt P10275); experiment: Reporter assay of an androgen receptor responsive sequence (luciferase, transiently transfected HEK293 cells); format: cell-based; conditions: 24 hours incubation, relative to activity of 100 nM DHT, read-out: AR transcriptive activity (pEC50) (converted)
T1 construct: expressed in transfected cells; host or cells: HEK293
T1 sequence (P10275 1-920): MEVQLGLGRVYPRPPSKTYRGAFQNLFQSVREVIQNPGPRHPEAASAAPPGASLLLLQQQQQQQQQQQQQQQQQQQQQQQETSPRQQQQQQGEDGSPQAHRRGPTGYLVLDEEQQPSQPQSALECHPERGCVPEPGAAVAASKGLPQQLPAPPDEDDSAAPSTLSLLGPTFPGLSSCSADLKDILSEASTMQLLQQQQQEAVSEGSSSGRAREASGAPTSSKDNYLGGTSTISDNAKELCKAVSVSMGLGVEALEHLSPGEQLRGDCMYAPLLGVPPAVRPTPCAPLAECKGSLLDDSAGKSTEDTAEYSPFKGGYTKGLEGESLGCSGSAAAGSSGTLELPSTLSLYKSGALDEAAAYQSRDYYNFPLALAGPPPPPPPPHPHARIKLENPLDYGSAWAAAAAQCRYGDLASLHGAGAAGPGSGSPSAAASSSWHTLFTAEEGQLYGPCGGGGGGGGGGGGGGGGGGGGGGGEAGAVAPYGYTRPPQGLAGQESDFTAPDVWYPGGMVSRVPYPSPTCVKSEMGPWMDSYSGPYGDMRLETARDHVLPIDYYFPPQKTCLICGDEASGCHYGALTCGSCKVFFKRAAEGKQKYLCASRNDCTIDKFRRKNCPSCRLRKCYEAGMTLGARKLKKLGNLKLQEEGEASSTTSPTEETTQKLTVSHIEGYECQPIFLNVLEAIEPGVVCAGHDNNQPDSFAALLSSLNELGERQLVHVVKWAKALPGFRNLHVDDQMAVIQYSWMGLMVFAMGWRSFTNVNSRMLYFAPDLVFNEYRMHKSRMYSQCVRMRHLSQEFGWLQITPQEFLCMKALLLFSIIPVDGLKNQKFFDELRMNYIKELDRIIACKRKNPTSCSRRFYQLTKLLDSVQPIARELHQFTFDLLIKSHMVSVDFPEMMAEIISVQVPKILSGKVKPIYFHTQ
Procedure: Reporter Assay of an Androgen Receptor Responsive Sequence
To examine the agonist activity of compounds for androgen, a reporter assay using an androgen receptor responsive sequence was conducted.
Using Lipofectamine 2000 (Invitrogen), a plasmid mixture (pGL4-ARE (200 ng/well), pcDNA3-hAR (20 ng/well), pRL-TK (Promega) (150 ng/well)) was transiently transfected into HEK293 cells. The contents of the plasmid (mixture) are as follows:
pGL4-ARE is a reporter plasmid containing firefly luciferase sequence under the control of androgen receptor responsive sequence; pcDNA3-hAR is a plasmid containing full-length sequence of human androgen receptor under the constant control of CMV promoter; pRL-TK is a plasmid containing Renilla Luciferase sequence under the control of herpes simplex virus thymidine kinase and used as an internal standard for evaluations of transfection efficiency and compound toxicity.
After the incubation of Lipofectamine 2000 and the plasmid mixture in Opti-MEM for 20 minutes, the mixture was mixed with a cell suspension prepared with Opti-MEM in the similar way, and the cell suspension was plated to a 96-well plate at 20000 cells/well. The transfection was conducted by incubating the plates under the condition of 5% CO2 at 37° C. for 3 hours. Three hours after the transfection, the culture medium was removed and a compound solution prepared by DMEM supplemented with 5% FBS and treated with charcoal was added, and the mixture was incubated under the condition of 5% CO2 at 37° C. for 24 hours. After the incubation with the compound, luciferase activities were measured with a luminometer using Dual-Glo™ Luciferase Assay System (Promega). The measurement of the luciferase activities was performed in accordance with the protocol recommended by Promega. The activity of the compound was determined by comparing to the activity of 100 nM of DHT, and quantified the logarithm value (pEC50) of reciprocal value of the effective concentration of the compound which is equal to 50% of the activity value by applying a 4 parameter goodness-of-fit calculation.

[1] = target: T2, androgen receptor (AR-LBD) (Rattus norvegicus, UniProt P15207); experiment: Evaluation of androgen receptor affinity (PolarScreen Androgen Receptor Competitor Assay Kit, Red; fluorescence polarization); conditions: 22° C. for 5 hours, relative to binding rate of 1 μM DHT, read-out: AR affinity (pEC50) (converted)
T2 construct: 5 μL of 2×AR-LBD/Fluoromone AL Red Complex contained in the kit; purchased Invitrogen
T2 sequence (P15207 651-882 limits assumed): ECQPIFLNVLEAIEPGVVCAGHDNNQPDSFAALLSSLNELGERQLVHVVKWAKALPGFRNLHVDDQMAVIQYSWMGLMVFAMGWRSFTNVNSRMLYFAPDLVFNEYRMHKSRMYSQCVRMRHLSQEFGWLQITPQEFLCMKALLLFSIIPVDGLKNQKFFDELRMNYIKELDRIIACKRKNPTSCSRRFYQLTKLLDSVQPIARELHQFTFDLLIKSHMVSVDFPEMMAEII
In short: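 pEC50 values reflect tracer displacement from AR-LBD (Fluoromone AL Red complex) measured by fluorescence polarization after 5 h at 22° C, normalized to 1 μM DHT and fitted with a 4-parameter model.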

Compound | EC50 (human androgen receptor) | EC50 [1]
CS(=O)(=O)NC(=O)c1nc(N(Cc2ccc3occc3c2)c2ccc(C#N)cc2)sc1Cl [Example 279, 2-[N-(benzofuran-5-ylmethyl)-4-cyano-anilino]-5-chloro-N-methylsulfonyl-thiazole-4-carboxamide] | 50.1 nM | 31.6 nM
Cc1oc(N(Cc2ccc(Br)cc2)c2ccc(C#N)cc2)nc1C(=O)NS(C)(=O)=O [Example 285, 2-[N-[(4-bromophenyl)methyl]-4-cyano-anilino]-5-methyl-N-methylsulfonyl-oxazole-4-carboxamide] | 200 nM | 50.1 nM
CSc1ccc(CN(c2ccc(C#N)cc2)c2nc(C(=O)NS(C)(=O)=O)c(C)s2)cc1 [Compound 11, 2-[4-cyano-N-[(4-methylsulfanylphenyl)methyl]anilino]-5-methyl-N-methylsulfonyl-thiazole-4-carboxamide] | 50.1 nM | 25.1 nM
CS(=O)(=O)NC(=O)c1nc(N(Cc2ccc(Cl)cn2)c2ccc(C(F)(F)F)nc2)sc1Br [Compound 644, 5-bromo-2-[(5-chloro-2-pyridyl)methyl-[6-(trifluoromethyl)-3-pyridyl]amino]-N-methylsulfonyl-thiazole-4-carboxamide] | 501 nM | 200 nM
COCCCS(=O)(=O)NC(=O)c1nc(N(Cc2nc(C3CC3)no2)c2ccc(C#N)cc2)sc1C [Example 197, 2-[4-cyano-N-[(3-cyclopropyl-1,2,4-oxadiazol-5-yl)methyl]anilino]-N-(3-methoxypropylsulfonyl)-5-methyl-thiazole-4-carboxamide] | 3980 nM | 1260 nM
CCc1oc(N(Cc2ccc(C(F)(F)F)nc2)c2ccc(C#N)cc2)nc1C(=O)NS(C)(=O)=O [Compound 639, 2-[4-cyano-N-[[6-(trifluoromethyl)-3-pyridyl]methyl]anilino]-5-ethyl-N-methylsulfonyl-oxazole-4-carboxamide] | 7940 nM | 251 nM
COCCCS(=O)(=O)NC(=O)c1nc(N(Cc2ccc(OC(F)F)nc2)c2ccc(C#N)cc2)sc1C [Compound 525, 2-[4-cyano-N-[[6-(difluoromethoxy)-3-pyridyl]methyl]anilino]-N-(3-methoxypropylsulfonyl)-5-methyl-thiazole-4-carboxamide] | 631 nM | 50.1 nM
Cc1oc(N(Cc2ccccc2OC(F)F)c2ccc(C#N)cc2)nc1C(=O)NS(C)(=O)=O [Compound 614, 2-[4-cyano-N-[[2-(difluoromethoxy)phenyl]methyl]anilino]-5-methyl-N-methylsulfonyl-oxazole-4-carboxamide] | > 10000 nM | 200 nM
Cc1sc(N(Cc2cnc(-c3ccc(F)cc3)s2)c2ccc(C#N)cc2)nc1C(=O)NS(C)(=O)=O [Compound 494, 2-[4-cyano-N-[[2-(4-fluorophenyl)thiazol-5-yl]methyl]anilino]-5-methyl-N-methylsulfonyl-thiazole-4-carboxamide] | 1000 nM | 31.6 nM
CCc1oc(N(Cc2ccc(Cl)c(F)c2)c2ccc(C#N)cc2)nc1C(=O)NS(C)(=O)=O [Compound 651, 2-[N-[(4-chloro-3-fluoro-phenyl)methyl]-4-cyano-anilino]-5-ethyl-N-methylsulfonyl-oxazole-4-carboxamide] | 200 nM | 39.8 nM
COCCCS(=O)(=O)NC(=O)c1nc(N(CCc2ccc(OC(F)(F)F)cc2)Cc2ccc(Cl)cn2)oc1C [Compound 564, 2-[(5-chloro-2-pyridyl)methyl-[2-[4-(trifluoromethoxy)phenyl]ethyl]amino]-N-(3-methoxypropylsulfonyl)-5-methyl-oxazole-4-carboxamide] | > 10000 nM | 158 nM
Cc1sc(N(Cc2ccc(OC(F)F)c(F)c2)c2ccc(C#N)cc2)nc1C(=O)NS(C)(=O)=O [Example 172, 2-[4-cyano-N-[[4-(difluoromethoxy)-3-fluoro-phenyl]methyl]anilino]-5-methyl-N-methylsulfonyl-thiazole-4-carboxamide] | 31.6 nM | 31.6 nM
Cc1sc(N(CCc2cccc(F)c2)Cc2ccccc2)nc1C(=O)NS(C)(=O)=O [Compound 685, 2-[benzyl-[2-(3-fluorophenyl)ethyl]amino]-5-methyl-N-methylsulfonyl-thiazole-4-carboxamide] | 316 nM | 50.1 nM
Cc1sc(N(Cc2ccc(-c3ccccc3F)cn2)c2ccc(C#N)cc2)nc1C(=O)NS(C)(=O)=O [Compound 594, 2-[4-cyano-N-[[5-(2-fluorophenyl)-2-pyridyl]methyl]anilino]-5-methyl-N-methylsulfonyl-thiazole-4-carboxamide] | 1580 nM | 79.4 nM
Cc1sc(N(CCc2ccccc2Cl)c2ccc(C#N)cc2)nc1C(=O)NS(C)(=O)=O [Compound 140, 2-[N-[2-(2-chlorophenyl)ethyl]-4-cyano-anilino]-5-methyl-N-methylsulfonyl-thiazole-4-carboxamide] | 794 nM | 100 nM
Cc1sc(N(CCc2ccc(Cl)cc2)Cc2cccc(Cl)c2)nc1C(=O)NS(C)(=O)=O [Compound 144, 2-[2-(4-chlorophenyl)ethyl-[(3-chlorophenyl)methyl]amino]-5-methyl-N-methylsulfonyl-thiazole-4-carboxamide] | 63.1 nM | 25.1 nM
Cc1sc(N(Cc2ccc(OC(F)F)c(Cl)c2)c2ccc(C#N)cc2)nc1C(=O)NS(C)(=O)=O [Compound 536, 2-[N-[[3-chloro-4-(difluoromethoxy)phenyl]methyl]-4-cyano-anilino]-5-methyl-N-methylsulfonyl-thiazole-4-carboxamide] | 39.8 nM | 20 nM
CS(=O)(=O)NC(=O)c1nc(N(Cc2cc3ccccc3s2)c2ccc(C#N)cc2)sc1Cl [Example 280, 2-[N-(benzothiophen-2-ylmethyl)-4-cyano-anilino]-5-chloro-N-methylsulfonyl-thiazole-4-carboxamide] | 25.1 nM | 50.1 nM
Cc1sc(N(CCc2ccc(C#N)cc2)Cc2ccc(Cl)cc2)nc1C(=O)NS(=O)(=O)Cc1ccncc1 [Compound 741, 2-[(4-chlorophenyl)methyl-[2-(4-cyanophenyl)ethyl]amino]-5-methyl-N-(4-pyridylmethylsulfonyl)thiazole-4-carboxamide] | 158 nM | 25.1 nM
Cc1nc(CN(CCc2ccc(Cl)cc2)c2nc(C(=O)NS(C)(=O)=O)c(C)s2)cs1 [Compound 504, 2-[2-(4-chlorophenyl)ethyl-[(2-methylthiazol-4-yl)methyl]amino]-5-methyl-N-methylsulfonyl-thiazole-4-carboxamide] | 631 nM | 63.1 nM
Cc1sc(N(Cc2ccccc2)c2ccc3ncccc3c2)nc1C(=O)NS(C)(=O)=O [Compound 54, 2-[benzyl(6-quinolyl)amino]-5-methyl-N-methylsulfonyl-thiazole-4-carboxamide] | 1580 nM | 398 nM
